{
  "source": "ChEMBL document CHEMBL2074283",
  "about": "“Interaction of pristinamycin IA with P-glycoprotein in human intestinal epithelial cells” (Eur J Pharmacol, 1995)",
  "key": {"[1]": {"target": "ATP-dependent translocase ABCB1 (Homo sapiens, UniProt P08183)", "sequence (P08183 whole entry)": "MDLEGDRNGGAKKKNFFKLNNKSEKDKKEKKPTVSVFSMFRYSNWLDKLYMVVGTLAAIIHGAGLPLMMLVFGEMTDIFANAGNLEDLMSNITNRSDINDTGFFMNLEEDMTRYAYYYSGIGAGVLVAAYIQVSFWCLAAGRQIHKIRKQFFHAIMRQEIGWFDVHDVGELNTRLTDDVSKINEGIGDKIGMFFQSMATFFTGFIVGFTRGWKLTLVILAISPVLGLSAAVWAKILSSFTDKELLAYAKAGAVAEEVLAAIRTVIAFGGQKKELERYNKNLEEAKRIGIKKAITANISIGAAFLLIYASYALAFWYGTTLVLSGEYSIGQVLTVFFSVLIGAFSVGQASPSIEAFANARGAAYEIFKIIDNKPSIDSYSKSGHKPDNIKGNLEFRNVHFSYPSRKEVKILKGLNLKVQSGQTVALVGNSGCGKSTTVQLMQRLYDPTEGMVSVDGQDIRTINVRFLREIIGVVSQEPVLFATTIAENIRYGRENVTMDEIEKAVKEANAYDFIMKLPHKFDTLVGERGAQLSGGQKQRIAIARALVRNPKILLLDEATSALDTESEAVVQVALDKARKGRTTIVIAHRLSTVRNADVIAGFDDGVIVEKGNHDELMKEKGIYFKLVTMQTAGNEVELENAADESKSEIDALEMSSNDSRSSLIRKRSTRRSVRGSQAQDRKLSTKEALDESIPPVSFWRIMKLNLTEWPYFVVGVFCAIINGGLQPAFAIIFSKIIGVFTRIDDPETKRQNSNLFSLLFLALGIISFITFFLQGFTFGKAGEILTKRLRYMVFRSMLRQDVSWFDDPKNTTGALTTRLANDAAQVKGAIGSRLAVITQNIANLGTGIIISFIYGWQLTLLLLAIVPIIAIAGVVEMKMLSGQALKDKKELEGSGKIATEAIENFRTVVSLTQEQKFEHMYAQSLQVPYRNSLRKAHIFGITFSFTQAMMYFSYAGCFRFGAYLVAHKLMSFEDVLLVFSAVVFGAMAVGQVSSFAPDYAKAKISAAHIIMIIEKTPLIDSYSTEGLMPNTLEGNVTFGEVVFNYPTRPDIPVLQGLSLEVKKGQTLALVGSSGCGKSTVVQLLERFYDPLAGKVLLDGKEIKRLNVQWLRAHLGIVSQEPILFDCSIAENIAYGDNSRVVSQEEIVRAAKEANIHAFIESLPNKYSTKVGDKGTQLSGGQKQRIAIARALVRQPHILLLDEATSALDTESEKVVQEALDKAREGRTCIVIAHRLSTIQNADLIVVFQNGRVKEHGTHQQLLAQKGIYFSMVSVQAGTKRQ", "experiment": "TP_TRANSPORTER: transepithelial transport (basal to apical) in Caco-2 cells", "type": "functional, cell-based"}, "P-glycoprotein (ABCB1)": {"target": "P-glycoprotein (ABCB1) (Homo sapiens, UniProt P08183)", "sequence (P08183 whole entry)": "as above", "experiment": "TP_TRANSPORTER: inhibition of Vinblastine transepithelial transport (basal to apical) (Vinblastine: 0.05 uM, Pristinamycin IA: 100 uM) in Caco-2 cells", "type": "functional, cell-based", "conditions": "Caco-2, probe Vinblastine 0.05 uM"}},
  "note": "Bridge positions count the residues as written; N and C are the ends. Square brackets hold non-standard residues; d marks the D form. Peptide text beside a SMILES is read from it. * marks the point of attachment. NMePhe(4-NMe2) = CN[C@@H](Cc1ccc(N(C)C)cc1)C(=O)O; Pip(4-oxo) = O=C1CCN[C@H](C(=O)O)C1; Picolinoyl(3-OH) = O=C(c1ncccc1O)*; Phg = N[C@H](C(=O)O)c1ccccc1; dAbu = CC[C@@H](N)C(=O)O",
  "data": [
    {"smiles": "CC[C@H]1NC(=O)[C@@H](NC(=O)c2ncccc2O)[C@@H](C)OC(=O)[C@H](c2ccccc2)NC(=O)[C@@H]2CC(=O)CCN2C(=O)[C@H](Cc2ccc(N(C)C)cc2)N(C)C(=O)[C@@H]2CCCN2C1=O", "note": "[PRISTINAMYCIN 1A] ({Picolinoyl(3-OH)}-T[dAbu]P[NMePhe(4-NMe2)][Pip(4-oxo)][Phg]; ester 1-C)", "values": [
      {"measurement": "Activity", "setting": "[1]", "value": "substrate [+]"},
      {"measurement": "inhibition at 100 µM", "setting": "P-glycoprotein (ABCB1)", "value": 55, "unit": "%"}
    ]}
  ]
}
